Values after ≈ are worked out from the molar mass of the structure shown. Like-named read-outs stand apart in the source and are kept apart here.
Columns and labels:
Bacillus subtilis = experiment: MIC in nutrient agar, Bacillus subtilis; format: cell-based, Bacillus subtilis (ATCC 8473); settings: Bs, 48 hours, read-out: Minimum Inhibitory Concentration (MIC)
Procedure: (§1) The minimum inhibitory concentration (MIC) for the compounds listed in Table I is determined for bacteria, using nutrient agar, and 7 yeast and fungi, using malt yeast agar. A one percent solution of the test compound is prepared in a mixture of acetone and water.
(§2) Nutrient agar is prepared at pH 6.8, representing a neutral medium, and at pH 8.2, representing an alkaline medium. The nutrient agars are prepared by adding 23 g of nutrient agar to one-liter of deionized water. In addition, the alkaline medium is prepared by adjusting a 0.04M solution of N-(tris-(hydroxymethyl)methyl)glycine buffered deionized water with concentrated sodium hydroxide to a pH of 8.5.
(§3) The test tubes containing the agar are cooled in a water bath until the temperature of the agar is 48° C. Then, an appropriate amount of the one percent solution of the test compound is added (except in the controls where no compound is added) to the respective test tubes so that the final concentrations are 500, 250, 100, 50, 25, 10, 2.5, 1.0 and zero parts per million of the test compound in the agar, thus having a known concentration of test compound dispersed therein. The contents of the test tubes are then transferred to respective petri plates. After drying for 24 hours, the petri plates containing nutrient agar are inoculated with bacteria and those containing malt yeast agar are inoculated with yeast and fungi.
(§4) The inoculation with bacteria is accomplished by using the following procedure. Twenty-four hour-cultures of each of the bacteria are prepared by incubating the respective bacteria in tubes containing nutrient broth for 24 hours at 30° C. in a shaker. Dilutions of each of the 24 hour-cultures are made so that nine separate suspensions (one for each of the nine test bacteria) are made, each containing 10^8 colony forming units (CFU) per mL of suspension of a particular bacteria. Aliquots of 0.3 mL of each of the bacterial suspensions are used to fill the individual wells of Steer's Replicator. For each microbial suspension, 0.3 mL was used to fill three wells (i.e., three wells of 0.3 mL each) so that for the nine different bacteria, 27 wells are filled. The Steer's Replicator is then used to inoculate both the neutral and alkaline pH nutrient agar petri plates.
(§5) The inoculated petri plates are incubated at 30° C. for 48 hours and then read to determine if the test compound which is incorporated into the agar prevented growth of the respective bacteria.
(§6) Table II lists the bacteria, yeast and fungi used in the MIC test described above along with their respective American Type Culture Collection (ATCC) identification numbers.
(§7) In Tables III and IV, the MIC values of the compounds described in Table I as compared to the MIC of a standard commercial preservative (with 1-(3-chloroalkyl)-3,5,7-triaza-1-azoniaadamantane chloride as the active agent and referred to in Tables III and IV as "STANDARD I") are set forth for the bacteria organisms and yeast/fungi organisms which are listed in Table II.

Enterobacter aerogenes = experiment: MIC in nutrient agar, Enterobacter aerogenes; format: cell-based, Enterobacter aerogenes (ATCC 13048); settings: Klebsiella aerogenes, Ea, 30° C., 48 hours, read-out: Minimum Inhibitory Concentration (MIC)
Procedure: as §1, §2, §3, §4, §5, §6, §7

Escherichia coli = experiment: MIC in nutrient agar, Escherichia coli; format: cell-based, Escherichia coli (ATCC 11229); settings: Ec, 48 hours, read-out: Minimum Inhibitory Concentration (MIC)
Procedure: as §1, §2, §3, §4, §5, §6, §7

[1] = system: Pseudomonas aeruginosa (PRD-10); experiment: MIC in nutrient agar, Pseudomonas aeruginosa (PRD-10); format: cell-based, Pseudomonas aeruginosa (ATCC 15442); settings: PRD, 48 hours, read-out: Minimum Inhibitory Concentration (MIC)
Procedure: as §1, §2, §3, §4, §5, §6, §7

Trichoderma viride = experiment: MIC in malt yeast agar, Trichoderma viride; format: cell-based, Trichoderma viride (ATCC 8678); settings: Tv; malt yeast agar; 30° C.; 72 hours for fungi; read-out: Minimum Inhibitory Concentration (MIC)
Procedure: as §1
(§8) Malt yeast agar is prepared by adding 3 g yeast extract and 45 g malt agar per liter of deionized water. The specific agar is dispensed in 30 mL aliquots into 25×200 mm test tubes, capped and autoclaved for 15 minutes at 115° C.
as §3
(§9) The inoculation with the yeast and fungi is accomplished as follows. Cultures of yeast and fungi are incubated for seven days on malt yeast agar at 30° C. These cultures are used to prepare suspensions by the following procedure. A suspension of each organism is prepared by adding 10 mL of sterile saline and 10 microliters of octylphenoxy polyethoxy ethanol to the agar slant of yeast or fungi. The sterile saline/octylphenoxy polyethoxy ethanol solution is then agitated with a sterile swab to suspend the microorganism grown on the slant. Each resulting suspension is diluted into sterile saline (1 part suspension: 9 parts sterile saline). Aliquots of these dilutions are placed in individual wells of Steer's Replicator and petri plates inoculated as previously described. The petri plates are incubated at 30° C. and read after 48 hours for yeast and 72 hours for fungi.
as §6, §7

Fusarium oxysporum = experiment: MIC in malt yeast agar, Fusarium oxysporum; format: cell-based, Fusarium oxysporum (ATCC 48112); settings: Fo; malt yeast agar; 30° C.; 72 hours for fungi; read-out: Minimum Inhibitory Concentration (MIC)
Procedure: as §1, §8, §3, §9, §6, §7

Proteus vulgaris = experiment: MIC in nutrient agar, Proteus vulgaris; format: cell-based, Proteus vulgaris (ATCC 881); settings: Pv, 48 hours, read-out: Minimum Inhibitory Concentration (MIC)
Procedure: as §1, §2, §3, §4, §5, §6, §7

Salmonella choleraesuis = experiment: MIC in nutrient agar, Salmonella choleraesuis; format: cell-based, Salmonella choleraesuis (ATCC 10708); settings: Salmonella enterica, Sc, 48 hours, read-out: Minimum Inhibitory Concentration (MIC)
Procedure: as §1, §2, §3, §4, §5, §6, §7

Aureobasidium pullulan = experiment: MIC in malt yeast agar, Aureobasidium pullulan; format: cell-based, Aureobasidium pullulan (ATCC 16622); settings: Ap; malt yeast agar; 30° C.; 72 hours for fungi; read-out: Minimum Inhibitory Concentration (MIC)
Procedure: as §1, §8, §3, §9, §6, §7

Compound `N#CSc1nsnc1SC#N` [Example 2, Bis(thiocyanato)-1,2,5-thiadiazole] has an MIC (Bacillus subtilis; pH 6.8, 30° C.) of 25 µg/mL (≈ 125 µM), an MIC (Bacillus subtilis; pH 8.2, 30° C.) of 100 µg/mL (≈ 499 µM) and an MIC (Enterobacter aerogenes; pH 6.8) of 25 µg/mL (≈ 125 µM). The MIC (Enterobacter aerogenes; pH 8.2) was 100 µg/mL (≈ 499 µM), the MIC (Escherichia coli; pH 6.8, 30° C.) was 25 µg/mL (≈ 125 µM) and the MIC (Escherichia coli; pH 8.2, 30° C.) was 50 µg/mL (≈ 250 µM). For the same compound, the MIC ([1]; pH 6.8, 30° C.) was 25 µg/mL (≈ 125 µM), the MIC ([1]; pH 8.2, 30° C.) was 250 µg/mL (≈ 1250 µM) and the MIC (Trichoderma viride) was 5 µg/mL (≈ 25 µM). It also gave an MIC (Fusarium oxysporum) of 2.5 µg/mL (≈ 12.5 µM), an MIC (Proteus vulgaris; pH 6.8, 30° C.) of 25 µg/mL (≈ 125 µM) and an MIC (Proteus vulgaris; pH 8.2, 30° C.) of 100 µg/mL (≈ 499 µM). For the same compound, the MIC (Salmonella choleraesuis; pH 6.8, 30° C.) was 25 µg/mL (≈ 125 µM), the MIC (Salmonella choleraesuis; pH 8.2, 30° C.) was 100 µg/mL (≈ 499 µM) and the MIC (Aureobasidium pullulan) was < 1 µg/mL.

For `N#CSCSc1nsnc1SCSC#N` [Example 4, Bis(thiomethylthiocyanato)-1,2,5-thiadiazole], the MIC (Bacillus subtilis; pH 6.8, 30° C.) was < 10 µg/mL, the MIC (Bacillus subtilis; pH 8.2, 30° C.) was < 10 µg/mL and the MIC (Enterobacter aerogenes; pH 6.8) was 25 µg/mL (≈ 85.5 µM). The MIC (Enterobacter aerogenes; pH 8.2) was < 10 µg/mL, the MIC (Escherichia coli; pH 6.8, 30° C.) was 25 µg/mL (≈ 85.5 µM) and the MIC (Escherichia coli; pH 8.2, 30° C.) was < 10 µg/mL. It also gave an MIC ([1]; pH 6.8, 30° C.) of 25 µg/mL (≈ 85.5 µM), an MIC ([1]; pH 8.2, 30° C.) of 25 µg/mL (≈ 85.5 µM) and an MIC (Trichoderma viride) of 10 µg/mL (≈ 34.2 µM). For the same compound, the MIC (Fusarium oxysporum) was < 2.5 µg/mL, the MIC (Proteus vulgaris; pH 6.8, 30° C.) was < 10 µg/mL and the MIC (Proteus vulgaris; pH 8.2, 30° C.) was < 10 µg/mL. For the same compound, the MIC (Salmonella choleraesuis; pH 6.8, 30° C.) was 25 µg/mL (≈ 85.5 µM), the MIC (Salmonella choleraesuis; pH 8.2, 30° C.) was 25 µg/mL (≈ 85.5 µM) and the MIC (Aureobasidium pullulan) was < 2.5 µg/mL.
